Assay results taken from paper PMC9302676 (Chemsuschem, 2022).

Tests used:
P450 BM3 (CYP102A1) [1] = target: P450 BM3 (CYP102A1) (Priestia megaterium, UniProt P14779, N320L/T412V/T437A); test: biochemical
P450 BM3 (CYP102A1) [2] = target: P450 BM3 (CYP102A1) (Priestia megaterium, UniProt P14779); test: biochemical
P450 BM3 (CYP102A1) (Priestia megaterium, UniProt P14779), sequence (P14779 whole entry): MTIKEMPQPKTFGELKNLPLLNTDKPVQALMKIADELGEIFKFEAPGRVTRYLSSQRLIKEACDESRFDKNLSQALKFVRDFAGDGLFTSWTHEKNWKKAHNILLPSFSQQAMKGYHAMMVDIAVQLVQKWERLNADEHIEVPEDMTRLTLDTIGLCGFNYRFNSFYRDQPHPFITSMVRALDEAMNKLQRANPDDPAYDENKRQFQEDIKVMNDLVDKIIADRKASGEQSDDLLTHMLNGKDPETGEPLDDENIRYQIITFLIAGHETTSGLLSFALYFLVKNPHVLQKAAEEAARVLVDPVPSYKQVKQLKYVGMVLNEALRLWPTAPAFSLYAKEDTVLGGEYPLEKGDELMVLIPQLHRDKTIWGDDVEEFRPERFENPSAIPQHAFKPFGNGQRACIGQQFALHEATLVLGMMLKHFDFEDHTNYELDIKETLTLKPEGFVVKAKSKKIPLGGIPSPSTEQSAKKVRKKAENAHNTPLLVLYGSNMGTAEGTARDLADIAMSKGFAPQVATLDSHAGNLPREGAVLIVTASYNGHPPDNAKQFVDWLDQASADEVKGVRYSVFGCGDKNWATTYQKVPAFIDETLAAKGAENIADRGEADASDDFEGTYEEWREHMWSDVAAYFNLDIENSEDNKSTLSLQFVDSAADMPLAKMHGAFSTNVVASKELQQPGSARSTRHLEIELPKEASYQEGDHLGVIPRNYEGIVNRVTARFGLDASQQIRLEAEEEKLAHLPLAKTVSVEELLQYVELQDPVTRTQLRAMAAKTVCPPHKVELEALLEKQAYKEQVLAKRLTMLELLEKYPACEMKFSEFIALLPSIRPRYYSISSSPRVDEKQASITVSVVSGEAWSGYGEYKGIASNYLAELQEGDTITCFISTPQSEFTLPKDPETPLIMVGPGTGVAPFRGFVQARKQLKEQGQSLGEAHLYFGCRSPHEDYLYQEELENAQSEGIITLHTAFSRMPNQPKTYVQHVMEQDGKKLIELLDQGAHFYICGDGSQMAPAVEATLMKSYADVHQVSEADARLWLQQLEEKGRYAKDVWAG

P450 BM3 (CYP102A1) (Priestia megaterium, UniProt P14779, N320L/T412V/T437A), sequence (P14779 whole entry N320L/T412V/T437A): as the sequence (P14779 whole entry) above, with N320L, T412V, T437A counted along it

For `CC1=CC(=O)CC(C)(C)C1` [α-isophorone], the Kd (P450 BM3 (CYP102A1) [1]) was 6.263 ± 0.047 mM and the Kd (P450 BM3 (CYP102A1) [2]) was 6.85 ± 0.079 mM.
